Patent US10882871B2, “18/19F-labelled compounds which target the prostate specific membrane antigen” (BRITISH COLUMBIA CANCER AGENCY BRANCH, priority 2016, dated 2021)
Several values for one entry are separate records, joined by “and”; a condition that tells them apart may be missing. Equal entries are not always repeated.

Tested on: tumors derived from LNCaP cells
Assay: PET/CT imaging and biodistribution of F-18 labeled HTK-01069 and HTK-01070 in tumor-bearing mice
Assay type: in vivo, mouse (NODSCID 1L2RγKO male mice)
Description: LNCap cell line used in the tumor model was obtained commercially from ATTC (LNCaP clone FGC, CRL-1740). It was established from a metastatic site of left supraclavicular lymph node of human prostatic adenocarcinoma. Cells were cultured in PRMI 1640 (StemCell Technologies, Vancouver, BC) supplemented by 10% FBS, 100 U/mL penicillin and 100 μg/mL streptomycin at 37° C. in a humidified incubator containing 5% CO2. Cells grown to 80-90% confluence were then washed with sterile phosphate-buffered saline (1×PBS pH 7.4) and trypsinization. The collected cells number was counted with Hemacytometer (Hausser Scientific).
Tumor implantation: Imaging and biodistribution experiments were performed using NODSCID 1L2RγKO male mice. Three or four mice in each cage equipped with enrichments. The mice were maintained and the experiments were conducted in according to the guidelines established by Canadian Council on Animal Care and approved by Animal Ethics Committee of the University of British Columbia. Mice were housed under pathogen-free conditions and kept on twelve hours light and twelve hours dark cycle in the Animal Research Centre, British Columbia Cancer Research Centre, Vancouver, Canada.
Mice were anesthetized by inhalation with 2.5% isoflurane in 2.0 L/min of oxygen during cells implantation. Mice were implanted subcutaneously with 1×10^7 LNCaP cells behind left shoulder. Mice were imaged or used in biodistribution studies when the tumor grew up to reach 5-8 mm in diameter during 5-6 weeks.
PET/CT Imaging: PET imaging experiments were conducted using Siemens inveon micro PET/CT scanner. Each tumor bearing mouse was injected ˜6.44 MBq of F-18 labeled HTK-01069 and ˜7.08 MBq of F-18 labeled HTK-01070 through the tail vein under anesthesia. After one hour, the mice were sedated again with 2% isoflurane inhalation and positioned in the scanner. Static PET imaging was performed to determined activity uptake of tumor and other organs. A CT scan was obtained for localization and attenuation correction after segmentation for reconstructing the PET images. The data was acquired by scanning the mice for 10 minutes each. The mice were kept warm by a heating pad during acquisition. The mice were euthanized after imaging and followed by biodistribution. Please see FIGS. 2 and 3 of this specification for reconstructed PET images for 1L2RγKO mice injected with HTK-01069 and HTK-01070 respectively.
Blood was withdrawn immediately, and the organs of interest were quickly removed. Each organ was weighed and the tissue radioactivity was measured with a Cobra II gamma counter (Packard), normalized to the injected dose using a standard curve and expressed as the percentage of the injected dose per gram of tissue (% ID/g). Biodistribution data are shown for HTK-01069 in Tables 5, 6 and 7 and HTK-01070 in Tables 8, 9, 10 of the specification respectively.

[1] = 1 h p.i. with co-injection of 0.5 mg DCFPyL, Avg
[2] = 1 h p.i. with co-injection of 0.5 mg DCFPyL, single mice

C[N+](C)(Cc1cn(Cc2ccc(C(=O)NCCCC[C@H](NC(=O)N[C@@H](CCC(=O)O)C(=O)O)C(=O)O)cc2)nn1)C[B-](F)(F)[18F] [F-18 HTK-01070]
Biodistribution Adrenals [1]: 0.20 % ID/g | Biodistribution Blood [1]: 0.46 % ID/g | Biodistribution Bone [1]: 0.12 % ID/g | Biodistribution Brain [1]: 0.02 % ID/g | Biodistribution Fat [1]: 0.04 % ID/g | Biodistribution Heart [1]: 0.22 % ID/g | Biodistribution Intestine [1]: 0.31 % ID/g | Biodistribution Kidney [1]: 2.11 % ID/g | Biodistribution Liver [1]: 0.06 % ID/g | Biodistribution Lung [1]: 0.09 % ID/g | Biodistribution Muscle [1]: 0.30 % ID/g | Biodistribution Pancreas [1]: 1.76 % ID/g | Biodistribution Seminal [1]: 1.87 % ID/g | Biodistribution Spleen [1]: 0.06 % ID/g | Biodistribution Stomach [1]: 0.09 % ID/g | Biodistribution Tail [1]: 0.38 % ID/g | Biodistribution Testes [1]: 0.08 % ID/g | Biodistribution Tumour [1]: 0.27 % ID/g | Biodistribution Adrenals [2]: 0.23 % ID/g and 0.26 % ID/g and 0.17 % ID/g and 0.16 % ID/g | Biodistribution Brain [2]: 0.02 % ID/g | Biodistribution Heart [2]: 0.21 % ID/g and 0.27 % ID/g and 0.20 % ID/g and 0.19 % ID/g | Biodistribution Intestine [2]: 0.31 % ID/g and 0.30 % ID/g and 0.28 % ID/g and 0.32 % ID/g | Biodistribution Kidney [2]: 2.40 % ID/g and 2.05 % ID/g and 1.96 % ID/g | Biodistribution Liver [2]: 0.06 % ID/g and 0.08 % ID/g and 0.07 % ID/g and 0.05 % ID/g | Biodistribution Lung [2]: 0.11 % ID/g and 0.10 % ID/g and 0.07 % ID/g and 0.08 % ID/g | Biodistribution Muscle [2]: 0.31 % ID/g and 0.38 % ID/g and 0.23 % ID/g and 0.29 % ID/g | Biodistribution Pancreas [2]: 1.92 % ID/g and 1.65 % ID/g and 1.88 % ID/g and 1.57 % ID/g | Biodistribution Spleen [2]: 0.06 % ID/g and 0.05 % ID/g | Biodistribution Stomach [2]: 0.09 % ID/g and 0.14 % ID/g and 0.07 % ID/g | Biodistribution Tail [2]: 0.45 % ID/g and 0.35 % ID/g and 0.36 % ID/g | Biodistribution Testes [2]: 0.09 % ID/g and 0.10 % ID/g and 0.06 % ID/g | Biodistribution Tumour [2]: 0.35 % ID/g and 0.26 % ID/g and 0.21 % ID/g | Biodistribution Adrenals (1 h p.i., Avg): 4.65 % ID/g | Biodistribution Blood (1 h p.i., Avg): 0.52 % ID/g | Biodistribution Bone (1 h p.i., Avg): 0.44 % ID/g | Biodistribution Brain (1 h p.i., Avg): 0.04 % ID/g | Biodistribution Fat (1 h p.i., Avg): 0.73 % ID/g | Biodistribution Heart (1 h p.i., Avg): 0.33 % ID/g | Biodistribution Intestine (1 h p.i., Avg): 0.33 % ID/g | Biodistribution Kidney (1 h p.i., Avg): 71.70 % ID/g | Biodistribution Liver (1 h p.i., Avg): 1.69 % ID/g | Biodistribution Lung (1 h p.i., Avg): 1.39 % ID/g | Biodistribution Muscle (1 h p.i., Avg): 0.23 % ID/g | Biodistribution Pancreas (1 h p.i., Avg): 0.33 % ID/g | Biodistribution Seminal (1 h p.i., Avg): 3.13 % ID/g | Biodistribution Spleen (1 h p.i., Avg): 5.01 % ID/g | Biodistribution Stomach (1 h p.i., Avg): 0.10 % ID/g | Biodistribution Tail (1 h p.i., Avg): 0.76 % ID/g | Biodistribution Testes (1 h p.i., Avg): 0.67 % ID/g | Biodistribution Tumour (1 h p.i., Avg): 8.28 % ID/g | Biodistribution Blood (1 h p.i., single mice): 0.46 % ID/g and 0.63 % ID/g and 0.50 % ID/g and 0.51 % ID/g | Biodistribution Bone (1 h p.i., single mice): 0.37 % ID/g and 0.33 % ID/g and 0.58 % ID/g and 0.52 % ID/g and 0.38 % ID/g and 0.45 % ID/g | Biodistribution Brain (1 h p.i., single mice): 0.03 % ID/g and 0.04 % ID/g and 0.05 % ID/g | Biodistribution Heart (1 h p.i., single mice): 0.36 % ID/g and 0.47 % ID/g and 0.37 % ID/g and 0.27 % ID/g and 0.24 % ID/g and 0.28 % ID/g | Biodistribution Intestine (1 h p.i., single mice): 0.26 % ID/g and 0.32 % ID/g and 0.42 % ID/g and 0.37 % ID/g and 0.31 % ID/g | Biodistribution Kidney (1 h p.i., single mice): 62.45 % ID/g and 54.11 % ID/g and 52.66 % ID/g and 91.10 % ID/g and 76.59 % ID/g and 93.32 % ID/g | Biodistribution Liver (1 h p.i., single mice): 1.51 % ID/g and 1.53 % ID/g and 1.65 % ID/g and 1.90 % ID/g and 1.60 % ID/g and 1.94 % ID/g | Biodistribution Lung (1 h p.i., single mice): 1.32 % ID/g and 1.35 % ID/g and 1.24 % ID/g and 1.21 % ID/g and 1.59 % ID/g and 1.61 % ID/g | Biodistribution Muscle (1 h p.i., single mice): 0.28 % ID/g and 0.21 % ID/g and 0.24 % ID/g and 0.17 % ID/g and 0.25 % ID/g and 0.22 % ID/g | Biodistribution Pancreas (1 h p.i., single mice): 0.30 % ID/g and 0.33 % ID/g and 0.35 % ID/g and 0.28 % ID/g and 0.32 % ID/g and 0.41 % ID/g | Biodistribution Spleen (1 h p.i., single mice): 5.58 % ID/g and 4.75 % ID/g and 5.97 % ID/g and 4.51 % ID/g and 4.95 % ID/g and 4.31 % ID/g | Biodistribution Stomach (1 h p.i., single mice): 0.08 % ID/g and 0.09 % ID/g and 0.10 % ID/g and 0.16 % ID/g and 0.12 % ID/g | Biodistribution Testes (1 h p.i., single mice): 0.94 % ID/g and 0.79 % ID/g and 0.49 % ID/g and 0.57 % ID/g and 0.58 % ID/g and 0.64 % ID/g | Biodistribution Tumour (1 h p.i., single mice): 7.56 % ID/g and 10.45 % ID/g and 8.06 % ID/g and 8.60 % ID/g and 8.31 % ID/g and 6.70 % ID/g | Biodistribution Adrenals (2 h p.i., Avg): 1.79 % ID/g | Biodistribution Blood (2 h p.i., Avg): 0.16 % ID/g | Biodistribution Bone (2 h p.i., Avg): 0.10 % ID/g | Biodistribution Brain (2 h p.i., Avg): 0.02 % ID/g | Biodistribution Fat (2 h p.i., Avg): 0.38 % ID/g | Biodistribution Heart (2 h p.i., Avg): 0.47 % ID/g | Biodistribution Intestine (2 h p.i., Avg): 0.25 % ID/g | Biodistribution Kidney (2 h p.i., Avg): 42.78 % ID/g | Biodistribution Liver (2 h p.i., Avg): 0.05 % ID/g | Biodistribution Lung (2 h p.i., Avg): 0.09 % ID/g | Biodistribution Muscle (2 h p.i., Avg): 0.35 % ID/g | Biodistribution Pancreas (2 h p.i., Avg): 1.50 % ID/g | Biodistribution Seminal (2 h p.i., Avg): 6.41 % ID/g | Biodistribution Spleen (2 h p.i., Avg): 0.17 % ID/g | Biodistribution Stomach (2 h p.i., Avg): 1.30 % ID/g | Biodistribution Tail (2 h p.i., Avg): 0.56 % ID/g | Biodistribution Testes (2 h p.i., Avg): 0.28 % ID/g | Biodistribution Tumour (2 h p.i., Avg): 6.84 % ID/g | Biodistribution Brain (2 h p.i., single mice): 0.02 % ID/g and 0.03 % ID/g | Biodistribution Heart (2 h p.i., single mice): 0.32 % ID/g and 0.58 % ID/g and 0.55 % ID/g and 0.44 % ID/g and 0.46 % ID/g | Biodistribution Intestine (2 h p.i., single mice): 0.21 % ID/g and 0.23 % ID/g and 0.26 % ID/g and 0.24 % ID/g and 0.32 % ID/g | Biodistribution Liver (2 h p.i., single mice): 0.04 % ID/g and 0.06 % ID/g and 0.05 % ID/g and 0.07 % ID/g | Biodistribution Muscle (2 h p.i., single mice): 0.31 % ID/g and 0.39 % ID/g and 0.27 % ID/g and 0.33 % ID/g and 0.44 % ID/g | Biodistribution Pancreas (2 h p.i., single mice): 1.30 % ID/g and 1.76 % ID/g and 1.41 % ID/g and 1.23 % ID/g and 1.80 % ID/g | Biodistribution Testes (2 h p.i., single mice): 0.23 % ID/g and 0.34 % ID/g and 0.26 % ID/g and 0.19 % ID/g and 0.36 % ID/g | Biodistribution Tumour (2 h p.i., single mice): 6.12 % ID/g and 6.47 % ID/g and 7.93 % ID/g
